Experimental findings from US11679168B2, “Caspase-3-triggered molecular self-assembling PET probes and uses thereof” (The Board of Trustees of the Leland Stanford Junior …, priority 2018, dated 2023) are described below.

The subject of data set [1] is H1299 cells. Kind of data set: Radiotracer uptake in H1299 cells. The class given is cell-based, human. The protocol: (§1) Temporal changes in cell-associated radioactivity in drug-treated cells or vehicle cells were measured with [18F]-C-SNAT4. Data are means±SD (n=3 per group). *, P<0.05; **, P<0.01; ***, P<0.005; *****, P<0.0001.
(§2) Radiotracer uptake in cells: H460 and H1299 cells (2×10^5) were plated in 6-well cell culture plates over night before [^18F]-C-SNAT4 uptake analysis. […] After 24 h treatment, fresh, prewarmed RPMI Medium 1640 containing 1.48 MBq (40 μCi) [^18F]-C-SNAT4 was added to individual wells (1 ml/well; 13.3 pmol). At post 10, 30, 60 min, medium was removed, cells were lifted by trypsinization, and washed three-times with cold PBS. Radioactivity contained in cell pellets was measured using a gamma counter, with counts normalized to total protein concentration as determined by cell digestion using RIPA buffer followed by protein quantitation by the Bradford method. The final radiotracer [^18F]-C-SNAT4 uptake concentration was expressed as μM of % uptake/mg protein. Results were normalized to a vehicle control (PBS for [^18F]-C-SNAT4 experiments at different time-points) which was washed.

Data set [2] is described as follows: Stability of [18F]-C-SNAT4 in mouse serum (HPLC). The class given is in vitro ADME. The note with it: 37° C., over 2 h incubation. The protocol: FIG. 1B illustrates the serum stability of [^18F]-C-SNAT4 in mouse serum. [^18F]-C-SNAT4 was incubated in serum at 37° C. and analyzed by HPLC.
(§3) At 24 h post treatment, mixture tracer of [^19F]-C-SNAT4 was injected with [^18F]-C-SNAT4 (mixture ratio at 1:200) through the tail vein for PET imaging (FIG. 24A-24C). For treated animal, tumor uptake of mixture tracer [^18F]/[^19F]-C-SNAT4 and [^18F]-C-SNAT4 were 2.9±0.3% ID/cc and 1.7±0.1% ID/cc, respectively at 85 min post injection. There was 1.7-fold increase of radioactivity in the mixture-treated mice. Overall, the uptake of [^18F]-C-SNAT4 was increased both in radiation and drug-treated tumors. In contrast, the tumor uptake of [^18F]/[^19F]-C-SNAT4 (ratio at 1:200) and [^18F]/[^19F]-C-SNAT4 (ratio at 1:80) in untreated tumor was 0.5±0.2% ID/cc and 0.3±0.2% ID/cc, respectively at 85 min after injection (FIG. 25A-25C), followed by a rapid signal decay back to baseline within a few minutes. There were no changes compared to the uptake of [^18F]-C-SNAT4 (0.4±0.1% ID/cc). […] The sample was centrifuged at 13,400 g for 10 min and […] of the resultant supernatant was diluted with […] of water and analyzed on HPLC. % intact tracer was calculated as %=(peak area for tracer/total peak area on the HPLC chromatogram)×100.

Data set [3] is described as follows: Stability of [18F]-C-SNAT4 in human serum (HPLC). It is filed as in vitro ADME. Particulars: 37° C., over 2 h incubation. The procedure:
FIG. 10 illustrates serum stability of [^18F]-C-SNAT4 in human serum. [^18F]-C-SNAT4 was incubated in serum at 37° C. and analyzed by HPLC.
as §3

Data set [4] concerns H460 cells. Kind of data set: Radiotracer uptake in H460 cells. The class given is cell-based, human. The procedure: as §1
FIG. 22 illustrates that a mixture strategy enhances [^18F]-C-SNAT4 uptake in radiation (a single dose at 10 Gy) treated cells and vehicle human non-small cell lung cancer H460 cells. 40 μCi of mixture tracer [^18F]/[^19F]-C-SNAT4 (at ratio of 1:80 or 1:200) or 40 μCi [^18F]-C-SNAT4 were incubated in cells for 1 hour at 24 h post-IR treatment and radioactivity of [^18F] was measured using γ-counter. Data are means±SD (n=3 each group). *, P<0.05; **, P<0.01; ***, P<0.001.
as §2

`CCSSCC(NC(=O)C(CC(=O)O)NC(=O)C(NC(=O)C(CCC(=O)O)NC(=O)C(CC(=O)O)NC(C)=O)C(C)C)C(=O)NCC(=O)NC(Cc1cn(CCOCCOCCOCC[18F])nn1)C(=O)NCc1ccc(C(=O)NCCCOc2cnc(C#N)nc2)cc1` (centres unmarked) [[^18F]-C-SNAT4]: the “difference in uptake, drug-treated versus untreated” value in data set [1] (H1299, high dose, 60 min) is “no difference”. Further, the cell uptake in data set [1] (cisplatin high dose (13.5 μM, 24 h) treated H1299, 30 min post incubation) is on record as 4.0±0.3 % radioactivity/mg protein; in data set [1] (cisplatin low dose (4.5 μM, 24 h) treated H1299, 60 min) it was 0.3±0.1 % uptake/mg protein; in data set [1] (control group H1299 (high dose experiment), 30 min post incubation) it was 2.5±0.6 % radioactivity/mg protein; in data set [1] (naïve H1299 (low dose experiment), 60 min) it was 0.2±0.1 % uptake/mg protein; in data set [4] (IR-treated (10 Gy, 24 h) H460, hot tracer only, 1 h) it was 3.9±0.4 % uptake/mg protein; in data set [4] (cisplatin high dose (13.5 μM, 24 h) treated H460, 10 min post incubation), 2.3 % radioactivity/mg protein. The cell uptake in data set [4] (cisplatin low dose (4.5 μM, 24 h) treated H460, 10 min) was 0.7±0.1 % uptake/mg protein; in data set [4] (cisplatin low dose (4.5 μM, 24 h) treated H460, 60 min), 1.45±0.11 % radioactivity/mg protein; in data set [4] (control H460 cells of high dose experiment, 10 min post incubation), 0.4±0.1 % uptake/mg protein; in data set [4] (non-treated H460, hot tracer only), 2.8±0.3 % uptake/mg protein; in data set [4] (untreated H460, 10 min) it was 0.5±0.1 % radioactivity/mg protein; in data set [4] (untreated H460, 60 min), 0.4 % uptake/mg protein. Also, the “percentage of [18F]-C-SNAT4 remained” value came out at 77.2% in data set [2] and 77.5% in data set [3]. Moreover, the “uptake of high dose-treated cells relative to control cells” value in data set [4] (H460, 10 min post incubation) is on record as 5.8 fold. Besides, the “uptake of low dose-treated cells relative to control cells” value in data set [4] (H460, 60 min post incubation) came out at 2.4 fold.
